The text below walks through data of US10479780B2, “Aminopyrazole derivatives” (Chugai Seiyaku Kabushiki Kaisha, priority 2015, dated 2019).

Holding throughout (type): biochemical
In one assay the target is T1, human Src enzyme (Homo sapiens, UniProt P12931).
T1 construct: purchased Carna Biosciences, Inc. 08-173
The assay can be described thus: Src enzyme inhibitory activity (time-resolved fluorometry, biotinylated peptide phosphorylation). To be noted: biotinylated peptide phosphorylation, read-out: SRC_IC50. The method, boiled down:
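Compounds were tested for blocking tyrosine phosphorylation of a biotinylated peptide substrate by recombinant human Src. Phosphorylated product was quantified by time-resolved fluorometry using europium cryptate and XL665 conjugates, and IC50 was calculated against the compound-free control.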

In another assay the target is T2, human Yes1 enzyme (Homo sapiens, UniProt P07947).
T2 construct: made in house
The experiment in a line: Yes1 enzyme inhibitory activity (time-resolved fluorometry, biotinylated peptide phosphorylation). To be noted: biotinylated peptide phosphorylation, read-out: YES_IC50. The method, boiled down: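 Inhibition was expressed against a compound-free control to give IC50, using TR-FRET read-out (Eu-cryptate anti-pTyr antibody, streptavidin-XL665).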

Another assay concerns the target T3, human Lck enzyme (Homo sapiens, UniProt P06239).
T3 construct: purchased Carna Biosciences, Inc. 08-170
The assay can be described thus: Lck enzyme inhibitory activity (time-resolved fluorometry, biotinylated peptide phosphorylation). The note with it: biotinylated peptide phosphorylation, read-out: LCK_IC50. In short, it runs like this:
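Readout pairs a europium cryptate-labelled anti-phosphotyrosine antibody with XL665-streptavidin, measured by time-resolved fluorescence. IC50 derived from percent inhibition against untreated controls.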

T1 sequence (P12931 whole entry): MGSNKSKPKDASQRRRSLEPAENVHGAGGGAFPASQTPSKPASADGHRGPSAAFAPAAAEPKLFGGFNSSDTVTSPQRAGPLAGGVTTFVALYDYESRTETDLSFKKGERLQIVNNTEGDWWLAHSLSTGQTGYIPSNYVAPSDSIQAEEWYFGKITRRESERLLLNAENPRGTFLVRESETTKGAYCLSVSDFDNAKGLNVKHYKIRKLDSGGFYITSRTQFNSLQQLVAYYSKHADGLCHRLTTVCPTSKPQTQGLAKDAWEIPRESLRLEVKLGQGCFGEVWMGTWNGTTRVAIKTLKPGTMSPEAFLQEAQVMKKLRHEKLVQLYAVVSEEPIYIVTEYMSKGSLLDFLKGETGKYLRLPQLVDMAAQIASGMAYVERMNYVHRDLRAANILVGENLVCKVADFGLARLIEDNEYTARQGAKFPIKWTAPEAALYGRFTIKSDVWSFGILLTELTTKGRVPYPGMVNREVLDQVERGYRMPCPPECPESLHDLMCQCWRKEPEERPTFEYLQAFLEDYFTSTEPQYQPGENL
T2 sequence (P07947 whole entry): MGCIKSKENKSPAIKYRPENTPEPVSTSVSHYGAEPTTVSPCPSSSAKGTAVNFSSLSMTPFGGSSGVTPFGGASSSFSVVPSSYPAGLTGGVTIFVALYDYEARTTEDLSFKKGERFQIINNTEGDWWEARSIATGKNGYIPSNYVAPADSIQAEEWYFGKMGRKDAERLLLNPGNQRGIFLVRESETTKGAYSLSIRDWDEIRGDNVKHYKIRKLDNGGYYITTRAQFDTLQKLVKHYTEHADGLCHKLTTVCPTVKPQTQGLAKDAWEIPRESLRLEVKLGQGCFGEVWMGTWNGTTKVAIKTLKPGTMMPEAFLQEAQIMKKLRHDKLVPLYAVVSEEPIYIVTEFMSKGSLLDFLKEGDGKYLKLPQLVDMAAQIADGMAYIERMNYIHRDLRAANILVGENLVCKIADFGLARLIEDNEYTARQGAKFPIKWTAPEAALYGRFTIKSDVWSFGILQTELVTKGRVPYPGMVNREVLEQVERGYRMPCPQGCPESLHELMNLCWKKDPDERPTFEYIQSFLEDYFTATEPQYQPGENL
T3 sequence (P06239 whole entry): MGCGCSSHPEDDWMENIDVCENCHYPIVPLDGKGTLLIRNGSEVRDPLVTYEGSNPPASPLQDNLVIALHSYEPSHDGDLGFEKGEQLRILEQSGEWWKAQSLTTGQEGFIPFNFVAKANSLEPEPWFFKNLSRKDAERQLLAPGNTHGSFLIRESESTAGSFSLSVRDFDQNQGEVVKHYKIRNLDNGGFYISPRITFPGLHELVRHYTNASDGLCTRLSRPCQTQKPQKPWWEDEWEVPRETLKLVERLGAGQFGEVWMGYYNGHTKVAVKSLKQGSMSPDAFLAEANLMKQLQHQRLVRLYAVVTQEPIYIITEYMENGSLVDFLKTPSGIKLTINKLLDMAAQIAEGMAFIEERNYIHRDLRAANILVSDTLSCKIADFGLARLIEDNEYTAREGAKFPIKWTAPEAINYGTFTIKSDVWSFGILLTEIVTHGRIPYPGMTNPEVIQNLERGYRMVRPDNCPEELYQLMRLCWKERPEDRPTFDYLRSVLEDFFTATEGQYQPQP

`Cc1cc(Oc2ccccc2F)ncc1-n1ncc(C(=O)c2cc3cc(F)c(NS(=O)(=O)c4cc(F)cc(F)c4)cc3[nH]2)c1N` [Example 5-1-564, N-[2-[5-amino-1-[6-(2-fluorophenoxy)-4-methylpyridin-3-yl]pyrazole-4-carbonyl]-5-fluoro-1H-indol-6-yl]-3,5-difluorobenzenesulfonamide]: the IC50 came out at 1500 nM at human Src enzyme, 14 nM on human Yes1 enzyme and 680 nM on human Lck enzyme.
`Cc1cc2cc(C(=O)c3cnn(-c4cnc(Oc5c(F)cccc5F)cc4C)c3N)[nH]c2cc1NS(=O)(=O)c1c(F)cc(F)cc1F` [Example 5-1-565, N-[2-[5-amino-1-[6-(2,6-difluorophenoxy)-4-methylpyridin-3-yl]pyrazole-4-carbonyl]-5-methyl-1H-indol-6-yl]-2,4,6-trifluorobenzenesulfonamide]: the IC50 on human Src enzyme was 1100 nM; on human Yes1 enzyme, 19 nM; on human Lck enzyme, 720 nM.
In the same order, the values of `Cc1cc(Oc2ccccc2F)ccc1-n1ncc(C(=O)c2cc3cc(F)c(NS(=O)(=O)c4c(F)cc(F)cc4F)cc3[nH]2)c1N` [Example 5-1-566, N-[2-[5-amino-1-[4-(2-fluorophenoxy)-2-methylphenyl]pyrazole-4-carbonyl]-5-fluoro-1H-indol-6-yl]-2,4,6-trifluorobenzenesulfonamide] are 810 nM, 5.6 nM and 340 nM.
For `Cc1cc(Oc2c(F)cccc2F)ncc1-n1ncc(C(=O)c2cc3cc(F)c(NS(=O)(=O)c4c(F)cc(F)cc4F)cc3[nH]2)c1N` [Example 5-1-567, N-[2-[5-amino-1-[6-(2,6-difluorophenoxy)-4-methylpyridin-3-yl]pyrazole-4-carbonyl]-5-fluoro-1H-indol-6-yl]-2,4,6-trifluorobenzenesulfonamide], the IC50 came out at 1200 nM on human Src enzyme, 19 nM on human Yes1 enzyme and 610 nM at human Lck enzyme.
Turning to `Cc1cc(Oc2ccccc2F)ncc1-n1ncc(C(=O)c2cc3cc(F)c(NS(=O)(=O)c4c(F)cc(F)cc4F)cc3[nH]2)c1N` [Example 5-1-568, N-[2-[5-amino-1-[6-(2-fluorophenoxy)-4-methylpyridin-3-yl]pyrazole-4-carbonyl]-5-fluoro-1H-indol-6-yl]-2,4,6-trifluorobenzenesulfonamide], the IC50 at human Src enzyme was determined as 1300 nM; on human Yes1 enzyme, 17 nM; on human Lck enzyme it was 750 nM.
In the same order, the values of `COc1ccnc(S(=O)(=O)Nc2cc3[nH]c(C(=O)c4cnn(-c5cnc(Oc6c(F)cccc6F)cc5C)c4N)cc3cc2OCC(F)F)c1` [Example 5-1-569, N-[2-[5-amino-1-[6-(2,6-difluorophenoxy)-4-methylpyridin-3-yl]pyrazole-4-carbonyl]-5-(2,2-difluoroethoxy)-1H-indol-6-yl]-4-methoxypyridine-2-sulfonamide] are 230 nM, 4.1 nM and 22 nM.
In the case of `Cc1cc(Oc2c(F)cccc2F)ncc1-n1ncc(C(=O)c2cc3cc(OCC(F)F)c(NS(=O)(=O)c4cccc(F)n4)cc3[nH]2)c1N` [Example 5-1-570, N-[2-[5-amino-1-[6-(2,6-difluorophenoxy)-4-methylpyridin-3-yl]pyrazole-4-carbonyl]-5-(2,2-difluoroethoxy)-1H-indol-6-yl]-6-fluoropyridine-2-sulfonamide], the figures for the IC50 on human Src enzyme, on human Yes1 enzyme and on human Lck enzyme were 410 nM, 2.1 nM and 9.6 nM, respectively.
As for `Cc1cnc(F)c(S(=O)(=O)Nc2cc3[nH]c(C(=O)c4cnn(-c5cnc(Oc6c(F)cccc6F)cc5C)c4N)cc3cc2OCC(F)F)c1` [Example 5-1-571, N-[2-[5-amino-1-[6-(2,6-difluorophenoxy)-4-methylpyridin-3-yl]pyrazole-4-carbonyl]-5-(2,2-difluoroethoxy)-1H-indol-6-yl]-2-fluoro-5-methylpyridine-3-sulfonamide], the IC50 on human Src enzyme was 540 nM; at human Yes1 enzyme, 2.2 nM; on human Lck enzyme, 30 nM.
`Cc1cc(Oc2c(F)cccc2F)ncc1-n1ncc(C(=O)c2cc3cc(OCC(F)F)c(NS(=O)(=O)c4cccc(Cl)n4)cc3[nH]2)c1N` [Example 5-1-572, N-[2-[5-amino-1-[6-(2,6-difluorophenoxy)-4-methylpyridin-3-yl]pyrazole-4-carbonyl]-5-(2,2-difluoroethoxy)-1H-indol-6-yl]-6-chloropyridine-2-sulfonamide]: the IC50 was found to be 690 nM at human Src enzyme, 3.5 nM at human Yes1 enzyme and 21 nM at human Lck enzyme.
In the same order, the values of `Cc1cccc(S(=O)(=O)Nc2cc3[nH]c(C(=O)c4cnn(-c5cnc(Oc6c(F)cccc6F)cc5C)c4N)cc3cc2OCC(F)F)n1` [Example 5-1-573, N-[2-[5-amino-1-[6-(2,6-difluorophenoxy)-4-methylpyridin-3-yl]pyrazole-4-carbonyl]-5-(2,2-difluoroethoxy)-1H-indol-6-yl]-6-methylpyridine-2-sulfonamide] are 440 nM, 2.9 nM and 14 nM.
In the same order, the values of `Cc1cc(Oc2c(F)cccc2F)ncc1-n1ncc(C(=O)c2cc3cc(OCC(F)F)c(NS(=O)(=O)c4cccc(C#N)n4)cc3[nH]2)c1N` [Example 5-1-574, N-[2-[5-amino-1-[6-(2,6-difluorophenoxy)-4-methylpyridin-3-yl]pyrazole-4-carbonyl]-5-(2,2-difluoroethoxy)-1H-indol-6-yl]-6-cyanopyridine-2-sulfonamide] are 540 nM, 2.8 nM and 13 nM.
Regarding `Cc1cc(Oc2c(F)cccc2F)ncc1-n1ncc(C(=O)c2cc3cc(OCC(F)F)c(NS(=O)(=O)c4cncc(Cl)c4)cc3[nH]2)c1N` [Example 5-1-575, N-[2-[5-amino-1-[6-(2,6-difluorophenoxy)-4-methylpyridin-3-yl]pyrazole-4-carbonyl]-5-(2,2-difluoroethoxy)-1H-indol-6-yl]-5-chloropyridine-3-sulfonamide], the IC50 on human Src enzyme was 650 nM; on human Yes1 enzyme, 4.3 nM; on human Lck enzyme, 46 nM.
In the case of `Cc1cc(Oc2c(F)cccc2F)ncc1-n1ncc(C(=O)c2cc3cc(OCC(F)F)c(NS(=O)(=O)c4cncc(F)c4)cc3[nH]2)c1N` [Example 5-1-576, N-[2-[5-amino-1-[6-(2,6-difluorophenoxy)-4-methylpyridin-3-yl]pyrazole-4-carbonyl]-5-(2,2-difluoroethoxy)-1H-indol-6-yl]-5-fluoropyridine-3-sulfonamide], the IC50 at human Src enzyme turned out to be 470 nM; at human Yes1 enzyme, 3.1 nM; on human Lck enzyme it was 14 nM.
Turning to `Cc1cc2cc(C(=O)c3cnn(-c4cnc(Oc5ccccc5F)cc4C)c3N)[nH]c2cc1NS(=O)(=O)c1cnc(N(C)C)nc1` [Example 5-1-577, N-[2-[5-amino-1-[6-(2-fluorophenoxy)-4-methylpyridin-3-yl]pyrazole-4-carbonyl]-5-methyl-1H-indol-6-yl]-2-(dimethylamino) pyrimidine-5-sulfonamide], the figures for the IC50 at human Src enzyme, at human Yes1 enzyme and on human Lck enzyme were 1100 nM, 6.6 nM and 380 nM, respectively.
